Measured values: patent publication US8933113B2 (Merck Sharp & Dohme Corp., priority 2011, dated 2015)

These compounds were tested against T1, full-length human Mineralocorticoid Receptor (MR) (Homo sapiens, UniProt P08235) (assay: human MR NH Pro assay (PathHunter Protein:Protein interaction assay), MR antagonist activity). Settings: PathHunter CHO-K1 cells overexpressing human MR; aldosterone about 0.3 nM; 6 hours at 37° C.; luminescence; read-out: Primary Assay IP rating (IP = inflection point for a given dose-response titration curve).
T1 construct: host or cells: PathHunter CHO-K1 cells
T1 sequence (P08235 1-984): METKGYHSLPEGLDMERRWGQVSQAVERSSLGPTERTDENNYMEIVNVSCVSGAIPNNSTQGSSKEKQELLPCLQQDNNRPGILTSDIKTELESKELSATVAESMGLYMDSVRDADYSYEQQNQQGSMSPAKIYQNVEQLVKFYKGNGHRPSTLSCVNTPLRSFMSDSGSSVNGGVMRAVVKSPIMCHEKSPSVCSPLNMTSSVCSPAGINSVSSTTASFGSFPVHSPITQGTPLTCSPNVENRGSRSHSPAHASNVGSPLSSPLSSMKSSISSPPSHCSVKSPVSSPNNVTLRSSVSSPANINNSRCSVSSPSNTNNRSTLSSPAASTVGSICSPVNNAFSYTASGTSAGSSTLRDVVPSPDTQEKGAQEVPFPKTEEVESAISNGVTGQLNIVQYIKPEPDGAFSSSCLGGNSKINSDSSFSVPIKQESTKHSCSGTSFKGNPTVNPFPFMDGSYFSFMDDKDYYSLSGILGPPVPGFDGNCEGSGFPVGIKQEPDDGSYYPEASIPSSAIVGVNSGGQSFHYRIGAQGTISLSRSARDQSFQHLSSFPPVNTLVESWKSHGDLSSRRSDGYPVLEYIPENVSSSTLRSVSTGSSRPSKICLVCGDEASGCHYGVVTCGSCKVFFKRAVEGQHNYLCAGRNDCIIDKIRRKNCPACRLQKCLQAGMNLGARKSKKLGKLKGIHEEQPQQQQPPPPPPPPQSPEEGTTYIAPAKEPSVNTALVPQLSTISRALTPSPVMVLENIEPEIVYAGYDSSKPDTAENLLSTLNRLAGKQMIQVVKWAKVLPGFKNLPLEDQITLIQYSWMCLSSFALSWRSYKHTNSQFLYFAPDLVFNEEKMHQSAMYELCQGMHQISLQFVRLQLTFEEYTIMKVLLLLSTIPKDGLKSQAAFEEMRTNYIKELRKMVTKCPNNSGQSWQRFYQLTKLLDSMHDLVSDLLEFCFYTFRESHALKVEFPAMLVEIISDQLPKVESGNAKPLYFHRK
Assay type: cell-based
In short: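 PathHunter enzyme-complementation assay in cells of full-length human MR recruitment of a coactivator peptide, run in antagonist mode against aldosterone at about 0.3 to 1.0 nM final. Compounds are in a 10-point, 1:3 series from a 4.4 mM top. Incubation is 6 h at 37° C, then detection reagent for 1 h at RT, with a luminescence read-out.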

| SMILES | IC50 |
| --- | --- |
| COC(=O)C(c1cccc(-c2cccc(OC)c2)c1)n1ccc2c(NS(C)(=O)=O)cccc21 (stereo not shown) [Compound 78] | 500 to 5000 nM |
| CS(=O)(=O)Nc1cccc2c1ccn2C1(c2ccc(Cl)cc2)CCNC1=O (stereo not shown) [Compound 84, N-{1-[3-(4-chlorophenyl)-2-oxopyrrolidin-3-yl]-1H-indol-4-yl}methanesulfonamide] | 100 to 500 nM |
| CCC(CO)(c1ccc(C(F)(F)F)cc1)n1ncc2c(NS(C)(=O)=O)cccc21 (stereo not shown) [Compound 89, N-(1-(1-hydroxy-2-(4-(trifluoromethyl)phenyl)butan-2-yl)-1H-indazol-4-yl)methanesulfonamide] | 100 to 500 nM |
| CCC(c1ccc(Cl)cc1)(n1ncc2c(NS(=O)(=O)NC)cccc21)C(C)(C)O (stereo not shown) [Compound 94] | < 100 nM |
| CCC(c1ccc(Cl)cc1)(n1ncc2c(NS(=O)(=O)N(C)C)cccc21)C(C)(C)O (stereo not shown) [Compound 95, 3-(1-(3-(4-chlorophenyl)-2-hydroxy-2-methylpentan-3-yl)-1H-indazol-4-yl)-1,1-dimethyl-sulfonylurea] | 100 to 500 nM |
| CCC(C(C)=O)(c1ccc(Cl)cc1)n1ncc2c(NS(=O)(=O)NC)cccc21 (stereo not shown) [Compound 105] | < 100 nM |
| CCC(c1ccc(Cl)cc1)(C(C)O)n1ncc2c(NS(=O)(=O)NC)cccc21 (stereo not shown) [Compound 118] | < 100 nM |
| CCC(c1ccc(Cl)cc1)(C(C)O)n1ncc2c(NS(=O)(=O)N(C)C)cccc21 (stereo not shown) [Compound 119, 3-(1-(3-(4-chlorophenyl)-2-hydroxypentan-3-yl)-1H-indazol-4-yl)-1,1-dimethyl-sulfonylurea] | < 100 nM |
| CCC(/C=C/C#N)(c1ccc(Cl)cc1)n1ncc2c(N)cc(F)cc21 (stereo not shown) [Compound 134, (E)-4-(4-amino-6-fluoro-1H-indazol-1-yl)-4-(4-chlorophenyl)hex-2-enenitrile] | 100 to 500 nM |
| CCC(/C=C/C#N)(c1ccc(Cl)cc1)n1ncc2c(N(C(=O)OC(C)(C)C)S(C)(=O)=O)cccc21 (stereo not shown) [Compound 135, (E)-tert-butyl 1-(3-(4-chlorophenyl)-1-cyanopent-1-en-3-yl)-1H-indazol-4-yl(methylsulfonyl) carbamate] | < 100 nM |
| CCC(/C=C/C#N)(c1ccc(Cl)cc1)n1ncc2c(N(S(C)(=O)=O)S(C)(=O)=O)cc(F)cc21 (stereo not shown) [Compound 136, (E)-N-(1-(3-(4-chlorophenyl)-1-cyanopent-1-en-3-yl)-6-fluoro-1H-indazol-4-yl)-N-(methylsulfonyl)methanesulfonamide] | < 100 nM |
| CCC(CCC#N)(c1ccccc1)n1ncc2c(NS(C)(=O)=O)cc(F)cc21 (stereo not shown) [Compound 144, N-(1-(1-cyano-3-phenylpentan-3-yl)-6-fluoro-1H-indazol-4-yl)methanesulfonamide] | < 100 nM |
| CCC(CCC#N)(c1ccc(Cl)cc1)n1ncc2c(NS(C)(=O)=O)cc(F)cc21 (stereo not shown) [Compound 145, N-(1-(3-(4-chlorophenyl)-1-cyanopentan-3-yl)-6-fluoro-1H-indazol-4-yl)methanesulfonamide] | < 100 nM |
| CCC(c1ccc(Cl)cc1)(c1nc(C(N)=O)no1)n1ncc2c(NS(C)(=O)=O)cccc21 (stereo not shown) [Compound 157, 5-(1-(4-chlorophenyl)-1-(4-(methylsulfonamido)-1H-indazol-1-yl)propyl)-1,2,4-oxadiazole-3-carboxamide] | 100 to 500 nM |

The remaining lines, values ahead:

| IC50 | SMILES |
| --- | --- |
| 100 to 500 nM | CCC(CO)(c1ccc(Cl)cc1)n1ccc2c(NS(C)(=O)=O)cc(F)cc21 (stereo not shown) [Compound 85, N-(1-(2-(4-chlorophenyl)-1-hydroxybutan-2-yl)-6-fluoro-1H-indol-4-yl)methanesulfonamide] |
| 100 to 500 nM | CCC(CO)(c1ccc(Cl)cc1Cl)n1ccc2c(NS(C)(=O)=O)cccc21 (stereo not shown) [Compound 87, N-(1-(2-(2,4-dichlorophenyl)-1-hydroxybutan-2-yl)-1H-indol-4-yl)methane sulfonamide] |
| < 100 nM | CCC(C(C)=O)(c1ccc(Cl)cc1)n1ccc2c(NS(C)(=O)=O)cc(F)cc21 (stereo not shown) [Compound 98, N-(1-(3-(4-chlorophenyl)-2-oxopentan-3-yl)-6-fluoro-1H-indol-4-yl)methanesulfonamide] |
| < 100 nM | CCC(C(C)=O)(c1ccc(Cl)cc1)n1ccc2c(NS(C)(=O)=O)cccc21 (stereo not shown) [Compound 99, N-(1-(3-(4-chlorophenyl)-2-oxopentan-3-yl)-1H-indol-4-yl)methanesulfonamide] |
| < 100 nM | CCC(c1ccc(Cl)cc1Cl)(C(C)O)n1ccc2c(NS(C)(=O)=O)cccc21 (stereo not shown) [Compound 110, N-(1-(3-(2,4-dichlorophenyl)-2-hydroxypentan-3-yl)-1H-indol-4-yl)methanesulfonamide] |
| < 100 nM | CCC(c1ccc(Cl)cc1)(C1CC1C#N)n1ncc2c(NS(C)(=O)=O)cccc21 (stereo not shown) [Compound 120, N-(1-(1-(4-chlorophenyl)-1-(2-cyanocyclopropyl)propyl)-1H-indazol-4-yl)methanesulfonamide] |
| < 100 nM | CCC(CC#N)(c1ccc(C(F)(F)F)cc1)n1ccc2c(NS(C)(=O)=O)cccc21 (stereo not shown) [Compound 126, N-(1-(1-cyano-2-(4-(trifluoromethyl)phenyl)butan-2-yl)-1H-indol-4-yl)methanesulfonamide] |
| < 100 nM | CCC(/C=C/C#N)(c1ccc(Cl)cc1)n1ccc2c(NS(C)(=O)=O)cccc21 (stereo not shown) [Compound 127, (E)-N-(1-(3-(4-chlorophenyl)-1-cyanopent-1-en-3-yl)-1H-indol-4-yl)methanesulfonamide] |
| < 100 nM | CCC(/C=C/C#N)(c1ccc(OC)cc1)n1ccc2c(NS(C)(=O)=O)cccc21 (stereo not shown) [Compound 128, (E)-N-(1-(1-cyano-3-(4-methoxyphenyl)pent-1-en-3-yl)-1H-indol-4-yl)methanesulfonamide] |
| < 100 nM | CCC(/C=C/C#N)(c1ccc(Cl)cc1)n1ncc2c(NS(C)(=O)=O)cccc21 (stereo not shown) [Compound 129, (E)-N-(1-(3-(4-chlorophenyl)-1-cyanopent-1-en-3-yl)-1H-indazol-4-yl)methanesulfonamide] |
| < 100 nM | CCC(/C=C/C#N)(c1ccc(Cl)cc1)n1ncc2c(NS(C)(=O)=O)cc(F)cc21 (stereo not shown) [Compound 130, (E)-N-(1-(3-(4-chlorophenyl)-1-cyanopent-1-en-3-yl)-6-fluoro-1H-indazol-4-yl)methanesulfonamide] |
| < 100 nM | CCC(/C(C)=C/C#N)(c1ccc(Cl)cc1)n1ccc2c(NS(C)(=O)=O)cccc21 (stereo not shown) [Compound 132, N-(1-(3-(4-Chlorophenyl)-1-cyano-2-methylpent-1-en-3-yl)-1H-indol-4-yl)methanesulfonamide] |
| 100 to 500 nM | CCC(/C=C/C#N)(c1ccc(Cl)cc1)n1ncc2c(N)cccc21 (stereo not shown) [Compound 133, (E)-4-(4-amino-1H-indazol-1-yl)-4-(4-chlorophenyl)hex-2-enenitrile] |
| < 100 nM | CCC(CCC#N)(c1ccc(OC)cc1)n1ccc2c(NS(C)(=O)=O)cccc21 (stereo not shown) [Compound 139, N-(1-(1-cyano-3-(4-methoxyphenyl)pentan-3-yl)-1H-indol-4-yl)methanesulfonamide] |
| 100 to 500 nM | CCC(C1=C(C#N)CCO1)(c1ccc(Cl)cc1)n1ccc2c(NS(C)(=O)=O)cccc21 (stereo not shown) [Compound 147, N-(1-(1-(4-Chlorophenyl)-1-(3-cyano-4,5-dihydrofuran-2-yl)propyl)-1H-indol-4-yl)methane-sulfonamide] |
| < 100 nM | CCC(C(=O)NCC#N)(c1ccc(Cl)cc1)n1ccc2c(NS(C)(=O)=O)cccc21 (stereo not shown) [Compound 149, 2-(4-chlorophenyl)-N-(cyanomethyl)-2-(4-(methylsulfonamido)-1H-indol-1-yl)butanamide] |
| < 100 nM | CCn1ncc(C(CC)(c2ccc(Cl)cc2)n2ccc3c(NS(C)(=O)=O)cccc32)n1 (stereo not shown) [Compound 152, N-(1-(1-(4-chlorophenyl)-1-(2-ethyl-2H-1,2,3-triazol-4-yl)propyl)-1H-indol-4-yl)methanesulfonamide] |
| < 100 nM | CCC(C(=O)OC)(c1ccc(Cl)cc1)n1ccc2c(CCS(C)(=O)=O)cccc21 (stereo not shown) [Compound 153, Methyl 2-(4-chlorophenyl)-2-(4-(2-(methylsulfonyl)ethyl)-1H-indol-1-yl)butanoate] |
| < 100 nM | CCC(c1ccc(Cl)cc1)(n1ccc2c(NS(C)(=O)=O)cccc21)C1(O)CC1 (stereo not shown) [Compound 154, N-(1-(1-(4-chlorophenyl)-1-(1-hydroxycyclopropyl)propyl)-1H-indol-4-yl)methanesulfonamide] |
| < 100 nM | COC(=O)C(CCF)(c1ccc(Cl)cc1)n1ccc2c(NS(C)(=O)=O)cccc21 (stereo not shown) [Compound 156, methyl 2-(4-chlorophenyl)-4-fluoro-2-(4-(methylsulfonamido)-1H-indol-1-yl)butanoate] |
